Broadly, the inhibition is the percentage by which the read-out fell short of the control.

Experimental findings from ChEMBL document CHEMBL3400081, “Exploration of benzamidochromenone derivatives with conformational restrictor as interleukin-5 inhibitors” (Bioorg Med Chem, 2015) are described below.

The target in the assay is T1, Interleukin-5 (Mus musculus) (UniProt P04401).
T1 sequence (whole entry): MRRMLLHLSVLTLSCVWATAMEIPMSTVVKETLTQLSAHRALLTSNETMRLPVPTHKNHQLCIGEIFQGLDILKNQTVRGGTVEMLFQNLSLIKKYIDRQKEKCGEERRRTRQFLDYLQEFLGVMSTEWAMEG
In words: Inhibition of mouse IL5-mediated mouse Y16 cell proliferation at 30 uM after 48 hrs by WST1 assay. A general note: Formazan colour is commonly taken as a measure of viable cells.

Turning to `O=C(Nc1ccc2oc(-c3ccccc3)c(CO)c(=O)c2c1)c1cnccn1`, the inhibition worked out at 23%.

Take `CC(=O)OCc1c(-c2ccccc2)oc2ccc(NC(=O)c3ccccc3)cc2c1=O`: the inhibition is 79%. With `O=C(Nc1ccc2oc(-c3ccccc3)c(CO)c(=O)c2c1)C1CCCCC1` the figure was 35%; with `CC(=O)OCc1c(C2CCCCC2)oc2ccc(NC(=O)C3CCCCC3)cc2c1=O`, 80%; with `O=C(Nc1ccc2oc(-c3ccc(F)cc3)c(CO)c(=O)c2c1)c1ccccc1`, 19%. With `CC(=O)OCc1c(-c2ccccc2)oc2ccc(NC(=O)C3CCCCC3)cc2c1=O` the figure was 75%; with `CC(=O)OCc1c(C2CCCCC2)oc2ccc(NCc3ccccc3)cc2c1=O`, 78%; with `CC(=O)OCc1c(-c2ccccc2)oc2ccc(NC(=O)c3cnccn3)cc2c1=O`, 15%. Compound `O=C(Nc1ccc2oc(C3CCCCC3)c(CO)c(=O)c2c1)c1ccccc1` came in with an inhibition of 90%. As for `O=C(Nc1ccc2oc(C3CCCCC3)c(CO)c(=O)c2c1)C1CCCCC1`, the inhibition worked out at 9%. Under `CC(=O)OCc1c(C2CCCCC2)oc2ccc(NC(=O)c3ccccc3)cc2c1=O` stands 95%. With `CC(C)C(=O)OCc1c(C2CCCCC2)oc2ccc(NC(=O)c3ccccc3)cc2c1=O` the figure was 71%; with `CC(=O)OCc1c(C2CCCCC2)oc2ccc(NC(=O)Nc3ccccc3)cc2c1=O`, 25%; with `CC(C)(C)C(=O)OCc1c(C2CCCCC2)oc2ccc(NC(=O)c3ccccc3)cc2c1=O`, 5%. With `CC(=O)OCc1c(-c2ccc(F)cc2)oc2ccc(NC(=O)c3ccccc3)cc2c1=O` the figure was 12%; with `CC(=O)OCc1c(C2CCCCC2)oc2ccc(NS(=O)(=O)c3ccccc3)cc2c1=O`, 5%. `O=C(Nc1ccc2oc(-c3ccccc3)c(CO)c(=O)c2c1)c1ccccc1` displayed an inhibition of 71%.
